Read-outs that look alike come from different tables or passages of the source. Square brackets hold non-standard residues; d marks the D form. Ends that are not written are not given here. pY = N[C@@H](Cc1ccc(OP(=O)(O)O)cc1)C(=O)O
Key:
[1] = tested on: CBL (47–435) R139C/D435C variant (diCys); experiment: Disulfide bond formation assay; format: biochemical; settings: CBL 47–435 diCys, SDS-PAGE, n = 3
Experimental: CBL variant mixtures were prepared at room temperature as described previously,[7] keeping aside a sample portion for zero-time point. Removal of DTT using a Zeba spin desalting column (Thermo Scientific) initiated the reactions. At indicated time points, samples were removed and quenched with 20 mM N-ethylmaleimide (NEM; Sigma) for 10 min and mixed with 4X SDS loading buffer. DTT (100 mM) was added to prepare the reduced samples. The samples were resolved by SDS-PAGE and the gels stained with Coomassie blue were scanned. The disulfide-bonded (D) and unmodified species (U) were quantified using the Image Studio software. Three independent experiments were performed, and curves for the disulfide bond fractions from each reaction were generated using GraphPad Prism.

CBL mutant 70Z = experiment: GFP-trap co-immunoprecipitation with Myc-tagged CBL-70Z in HEK293 cells; format: cell-based; settings: expressed as GFP-CBLock variants in HEK293 cells
Experimental: The cells were pelleted and lysed in IP lysis buffer (50 mM Tris-HCl pH 7.5, 150 mM NaCl, 1 mM EDTA, 1% IGEPAL CA-630, 10% glycerol, 0.5 mM DTT, and cOmplete protease inhibitor cocktail) to prepare the whole cell lysates. Immunoprecipitation and immunoblotting were performed using the lysates as described before.[28] For each regular immunoprecipitation reaction, 1 mg freshly prepared whole cell lysate was incubated with primary antibodies at 4 °C for 4 h on a rotatory shaker. […] Alternatively for each reaction, 1 mg freshly prepared whole cell lysate was incubated overnight with antibody- or immunoglobulin (Ig)G-conjugated agarose beads. The next day beads were washed three times with IP lysis buffer and once with PBS. […] This was followed by similar washing steps as mentioned before. The beads were then either processed for mass spectrometry or immunoprecipitated proteins were eluted at 95 °C in 40 μL 2X loading dye. A previous method was used to perform immunoblotting[51] and the immunoblots were scanned using an Odyssey CLx Imaging System (LI-COR Biosciences).

[2] = tested on: MOLM-13Luc/CBLock cells in NSG mice
[3] = Solubility as noted by the authors; format: physicochemical; settings: qualitative, aqueous solution

Compound	Effect on diCys disulfide bond formation [1]	Binding to CBL mutant 70Z (CBL mutant 70Z)	further results
TLNSDG(p)YTPEPA [pZAP70, phosphotyrosine substrate peptide from ZAP70]	prevented formation of the diCys disulfide bond	–	–
SMEKTDQWRMVEIDSW [CBLock-Sc1]	–	failed to bind the CBL mutant 70Z	–
IKDWQDRSVWESMTME [CBLock-Sc2]	–	failed to bind the CBL mutant 70Z	–
CBLock-DM: CBLock mutant D7A/I10A expressed as GFP or iRFP fusion (MTVEEMASWAKSWDQR; also: fused to GFP or iRFP)	–	failed to bind the CBL mutant 70Z	–
CC[C@H](C)[C@H](NC(=O)[C@H](Cc1c[nH]c2ccccc12)NC(=O)[C@H](CO)NC(=O)[C@H](CC(=O)O)NC(=O)[C@H](CCSC)NC(=O)[C@H](CCC(=O)O)NC(=O)[C@H](CCC(=O)O)NC(=O)[C@@H](NC(=O)[C@@H](NC(=O)[C@@H](N)CCSC)[C@@H](C)O)C(C)C)C(=O)N[C@@H](CCCCN)C(=O)N[C@@H](CO)C(=O)N[C@@H](Cc1c[nH]c2ccccc12)C(=O)N[C@@H](CC(=O)O)C(=O)N[C@@H](CCC(N)=O)C(=O)N[C@@H](CCCNC(=N)N)C(=O)O [CBLock]	–	–	Body weight ([2]; cohort two): no marked changes in body weights; Body weight ([2]; first experiment, dox vs vehicle): no obvious difference in body weight; Solubility [3]: enhanced solubility in aqueous solution
STVSFNP[pY]EPTGGPWG [pSYK, phosphotyrosine substrate peptide from SYK]	prevented formation of the diCys disulfide bond	–	–
